Reference: patent US20180105492A1, “COMPOUNDS DERIVED FROM 3-ALKYLAMINE-1H-INDOLYL ACRYLATE AND THEIR USE IN THE TREATMENT OF NEURODEGENERATIVE DISEASES” (FUNDACION PARA LA INVESTIGACION BIOMEDICA DEL HOSPITAL …, priority 2014, published 2018)

Experiments:
[1] = tested on: Nrf2 transcription factor (Nrf2-ARE); test: Nrf2-ARE induction, luciferase activity in AREc32 (MCF7 cells stably transfected with ARE-LUC); format: cell-based; settings: Homo sapiens, 24 h, basal = 1, read-out: Relative Luciferase activity (response versus basal)
Procedure: For the study of Nrf2 transcription factor, the cellular line AREC32 was used, which is characterized for being stably transfected with the reporter gene of Luciferase linked to the ARE sequence. In the presence electrophilic compounds or oxidative stress, Nrf2 factor binds to ARE sequences, activating luciferase expression and producing a proportional quantity of luciferase. The AREc32 cells were cultured in DMEM media with glutamax, supplemented with 10% fetal bovine serum (FBS), 1% penicillin-streptomycin and 1.6% geneticine (G418) (obtained from GIBCO, Madrid, Spain). Cells were cultured in 75 cm flasks with 11 mL of specific media, incubated at 37° C. and 5% of CO2. Cells were passed every 4-6 days (1:4), whenever the confluence reached 80%. For the experiments, cells were cultured in transparent surface 96 well plates at a density of […] with 100 μL/well. After 24 h in culture, cells were treated with the compounds at different concentrations (1, 10, 30 and 60 μM) during 24 h at 37° C. and 5% CO2. In every experiment it was also included a basal variable, a variable with 10 μM tert-butyl hydroquinone (TBHQ) (positive control) and the variables of the study in a final volume of 100 μL. After an incubation of 24 h with the compounds, luciferase activity was measured by bioluminescence using the commercial kit “Luciferase assay system” (Promega E1500). For that, treatments were removed and cells were washed with 100 μL of PBS 0.1 M. After washing, 20 μL of “lysis buffer” reactive was added to each well. 10 minutes later, luminescence was measured using the multi-well reader FluoStar optima (BMG labtech).
Luminescence was measured in arbitrary units and is directly proportional to luciferase quantity in the wells, which is also directly proportional to Nrf2 transcription factor induction by the specific compound at the established concentration. Measurements were made in duplicate and values were normalized to the basal luminescence value, considered as 1.
The results of Nrf2 induction obtained for the compounds 1 to 16 are shown in Table 1 and are expressed as induction, considering 1 the non-treated cells.

SH-SY5Y cells = test: Neuroprotection against rotenone/oligomycin A, pre- and co-incubation model, MTT; format: cell-based; settings: Homo sapiens, compound 1 μM pre-incubation 24 h and co-incubation 24 h with Rot/Olig (30/10 μM); for inhibition at 1 µM: read-out: % Protection; for viability at 1 µM: read-out: % Survival
Procedure: SH-SY5Y cells [ECACC 94030304], in 5 to 16 passage after defreezing were maintained in Eagle media modified by Dulbecco (DMEM) containing 15 non-essential amino acids and supplemented with 10% fetal bovine serum, 1 mM glutamine, 50 units/mL penicillin/streptomycin (obtained from GIBCO, Madrid, Spain). Cells were seeded in flasks containing supplemented media and were maintained in an incubator at 37° C. and 5% CO2. 1:4 passes were performed twice per week. For the experiments, cells were seeded in 24 well-plates at a density of 2×10^5 cells/well, or in 96 well-plates at a density of 8×10^4 cells/well. For cytotoxicity experiments, cells were treated with the compounds before confluence with DMEM media supplemented with fetal bovine serum 1%.
In order to assess cellular viability, we measured the metabolic reduction of 3-(4,5-Dimethylthiazol-2-yl)-2,5 diphenyltetrazolium bromide (MTT). MTT is an indirect assay to measure cellular viability. It is a colorimetric method based on the reduction of 3-(4,5-Dimethylthiazol-2-yl)-2,5 diphenyltetrazolium. This process is performed by the mitochondrial enzyme succinate-dehydrogenase present in metabolic active cells. Thus, the water-soluble yellow MTT (tetrazolium salt) is transformed into a insoluble purple compound (formazan). Quantity of living cells is directly proportional to the quantity of formazan (Mosmann, 1983, J Immunol Methods, 65: 55-63). […] Therefore, with this assay we can measure cellular surviving and proliferation and also, we can determine the cytotoxicity of potential neuroprotective compounds. In order to assess cellular viability in SH-SY5Y cell line, we added 30 μl/well of MTT (5 mg/mL) and after 2 h, medium was carefully removed to avoid losing the formazan and was diluted in 300 μL of DMSO. Afterwards, samples were transferred to a 96 well-plate and the absorbance was measured at 570 nm using a absorbance/fluorescence reader FluoStar optima®. Every MTT assay was performed in triplicates. Absorbance values obtained with the toxic alone were subtracted to the absorbance values obtained in basal conditions (without treatment). That result was considered as the 100% of cell death and the values obtained with the compounds in the presence of the toxic stimulus were normalized as percentages of that value. For determining the surviving percentage, those percentages of cell death were subtracted to 100.
Neuroprotection elicited by the compounds of the invention 1-16: The activation of Nrf2-ARE pathway by different compounds exerts neuroprotective effects against toxic models based on oxidative stress via the expression of cytoprotective genes. […] We evaluated the neuroprotective potential of the compounds using the human neuroblastoma cell line using the following cytotoxicity models: 1) oxidative stress induced by rotenone+oligomycin, both blockers of the electron transport chain as previously described (Halliwell, 1992, J Neurochem, 59: 1609-23, Newhouse y col., 2004, Toxicol Sci, 79: 137-46), and 2) cytotoxicity induced by the electrophilic compound Menadione. This compound produces oxidative stress after being metabolized by microsomal enzymes in the cell which produces hydroxyl radical and oxygen reactive species. As a consequence, there is a depolarization of mitochondrial membrane generating a release of apoptotic factors such as cytochrome c, and activating the caspase cascade (Loor y col., 2010, Free Radic Biol Med, 49: 1925-36, Chuang y col., 2002, Cancer Res, 62: 6246-54). Caspase 3 activation can produce the lysis of proteins and induce DNA fragmentation, leading to cell death (Gerasimenko y col., 2002, J Cell Sci, 115: 485-97).
In this model, a 24 h pre-incubation period was performed in presence of the compounds synthesized at a concentration of 1 μM. Thereafter, a 24 h co-incubation period was added, in presence of the compounds with rotenone/oligomycin A (30 μM/10 μM) mixture. After 24 h, cell viability was assessed by the MTT reduction method. […]

Structure (SMILES) | fold induction at 10 µM [1] | fold induction at 30 µM [1] | fold induction at 60 µM [1] | inhibition at 1 µM (SH-SY5Y cells) | viability at 1 µM (SH-SY5Y cells)
CC(=O)NCCc1c[nH]c2ccc(OC(=O)/C=C/c3ccc(O)cc3)cc12 [Compound 7, 3-(2-acetamidoethyl)-1H-indol-5-yl (E)-3-(4-hydroxyphenyl)acrylate] | 0.95 ± 0.1 | 1.09 ± 0.1 | 1.57 ± 0.1 | 39.8% | 79.7 ± 2.37%
CC(=O)NCCc1c[nH]c2ccc(OC(=O)/C=C/c3ccc(Br)cc3)cc12 [Compound 10, 3-(2-acetamidoethyl)-1H-indol-5-yl (E)-3-(4-bromophenyl)acrylate] | 1.53 ± 0.2 | 3.12 ± 0.5 | 13.3 ± 2.1 | 40.8% | 70.4 ± 2.21%
CC(=O)NCCc1c[nH]c2ccc(OC(=O)/C=C/c3ccc(C(F)(F)F)cc3)cc12 [Compound 15, 3-(2-acetamidoethyl)-1H-indol-5-yl (E)-3-(4-(trifluoromethyl)phenyl)acrylate] | 2.34 ± 0.2 | 4.99 ± 0.5 | 28.9 ± 2.9 | 47.6% | 73 ± 2.99%
COc1cccc(/C=C/C(=O)Oc2ccc3[nH]cc(CCNC(C)=O)c3c2)c1 [Compound 5, 3-(2-acetamidoethyl)-1H-indol-5-yl (E)-3-(3-methoxyphenyl)acrylate] | 1.39 ± 0.1 | 1.63 ± 0.2 | 2.09 ± 0.2 | 57.6% | 78.7 ± 4.37%
CC(=O)NCCc1c[nH]c2ccc(OC(=O)/C=C/c3ccc(C)cc3)cc12 [Compound 3, 3-(2-acetamidoethyl)-1H-indol-5-yl (E)-3-(4-methylphenyl)acrylate] | 1.26 ± 0.1 | 2.03 ± 0.1 | 3.26 ± 0.3 | 55.1% | 76.4 ± 3.89%
CC(=O)NCCc1c[nH]c2ccc(OC(=O)/C=C/c3cccc(C(F)(F)F)c3)cc12 [Compound 14, 3-(2-acetamidoethyl)-1H-indol-5-yl (E)-3-(3-(trifluoromethyl)phenyl)acrylate] | 1.34 ± 0.2 | 1.64 ± 0.2 | 2.13 ± 0.2 | 45.9% | 72.6 ± 3.75%
CC(=O)NCCc1c[nH]c2ccc(OC(=O)/C=C/c3ccc([N+](=O)[O-])cc3)cc12 [Compound 16, 3-(2-acetamidoethyl)-1H-indol-5-yl (E)-3-(4-nitrophenyl)acrylate] | 1.69 ± 0.1 | 2.41 ± 0.1 | 3.19 ± 0.1 | 29.5% | 76.5 ± 2.18%
CC(=O)NCCc1c[nH]c2ccc(OC(=O)/C=C/c3ccc(Cl)c(Cl)c3)cc12 [Compound 12, 3-(2-acetamidoethyl)-1H-indol-5-yl (E)-3-(3,4-dichlorophenyl)acrylate] | 1.16 ± 0.1 | 1.43 ± 0.1 | 2.12 ± 0.2 | 27.8% | 69.9 ± 3.47%
COc1cc(/C=C/C(=O)Oc2ccc3[nH]cc(CCNC(C)=O)c3c2)ccc1O [Compound 8, 3-(2-acetamidoethyl)-1H-indol-5-yl (E)-3-(4-hydroxy-3-methoxyphenyl)acrylate] | 1.11 ± 0.1 | 1.83 ± 0.1 | 2.36 ± 0.1 | 41.7% | 81.1 ± 1.71%
COc1ccc2[nH]cc(CCNC(C)=O)c2c1 [Melatonin, reference compound] |  |  |  | 31.1% | 68.3 ± 4.27%
CC(=O)NCCc1c[nH]c2ccc(OC(=O)/C=C/c3ccccc3C(F)(F)F)cc12 [Compound 13, 3-(2-acetamidoethyl)-1H-indol-5-yl (E)-3-(2-(trifluoromethyl)phenyl)acrylate] | 1.38 ± 0.1 | 1.79 ± 0.1 | 2.55 ± 0.2 | 50.2% | 73.8 ± 4.55%
COc1ccccc1/C=C/C(=O)Oc1ccc2[nH]cc(CCNC(C)=O)c2c1 [Compound 4, 3-(2-acetamidoethyl)-1H-indol-5-yl (E)-3-(2-methoxyphenyl)acrylate] | 1.67 ± 0.1 | 2.01 ± 0.1 | 2.53 ± 0.1 | 28.1% | 69.9 ± 4.17%
C/C=C/C(=O)Oc1ccc2[nH]cc(CCNC(C)=O)c2c1 [Compound 1, 3-(2-acetamidoethyl)-1H-indol-5-yl (E)-2-butenoate] | 2.34 ± 0.2 | 12.1 ± 1.3 | 30.7 ± 1.7 | 28.8% | 77 ± 1.3%
CC(=O)NCCc1c[nH]c2ccc(OC(=O)/C=C/c3ccc(Cl)cc3)cc12 [Compound 11, 3-(2-acetamidoethyl)-1H-indol-5-yl (E)-3-(4-chlorophenyl)acrylate] | 1.18 ± 0.1 | 1.59 ± 0.2 | 3.55 ± 0.9 | 28.4% | 70.2 ± 3.7%
CC(=O)NCCc1c[nH]c2ccc(OC(=O)/C=C/c3ccccc3)cc12 [Compound 2, 3-(2-acetamidoethyl)-1H-indol-5-yl cinnamate] | 1.63 ± 0.2 | 1.78 ± 0.1 | 2.54 ± 0.3 | 48% | 73.7 ± 4.65%
COc1ccc(/C=C/C(=O)Oc2ccc3[nH]cc(CCNC(C)=O)c3c2)cc1 [Compound 6, 3-(2-acetamidoethyl)-1H-indol-5-yl (E)-3-(4-methoxyphenyl)acrylate] | 2.02 ± 0.2 | 3.4 ± 0.3 | 4.62 ± 0.4 | 44.1% | 71.6 ± 3.94%
CC(=O)NCCc1c[nH]c2ccc(OC(=O)/C=C/c3ccc(F)cc3)cc12 [Compound 9, 3-(2-acetamidoethyl)-1H-indol-5-yl (E)-3-(4-fluorophenyl)acrylate] | 1.92 ± 0.2 | 2.27 ± 0.2 | 4.21 ± 0.6 | 40.5% | 69.6 ± 2.63%
